The conditions of the data set: pH 7.

For the substance “poly(ethylene glycol) chloroethyl sulfone [PEG chloroethyl sulfone]”, the “stability in water, NMR after extraction” value is “stable”.

For the origin of these results see US7214366B2, “Isolatable, water soluble, and hydrolytically stable active sulfones of poly(ethylene glycol) and related polymers for modification of surfaces and molecules” (Nektar Therapeutics AL, Corporation, priority 1993, dated 2007).
